The subject of this test is Sebocytes SEBO662 (3D epithelium). Kind of test: Lipid synthesis/accumulation in 3D model culture of Sebocytes (Oil-red-O staining, lipid droplet surface area). The test is classed as cell-based, human. As to conditions: for lipid accumulation, % of the control / stimulation of lipid accumulation (in words): 14 days incubation, 3D Sebocytes; for lipid accumulation, % of the control: Oil-red-O lipid droplet surface area; for effect on lipid synthesis in the 3D Sebocytes model (conclusion, in words): overall conclusion, no concentration stated. From the text: Since secretory cells (meibocytes) of meibomian glands, share similarities with that of the secretory cells (sebocytes) of sebaceous glands, as can be validated from their similar structure, similar function and their joint embryologic development (Knop 2011_IOVS) the effect of Thiol containing Lipids on lipid production can be evaluated in a 3D model culture of Sebocytes. See also: Barrault 2012, Immortalized sebocytes can spontaneously differentiate into a sebaceous-like phenotype when cultured as a 3D epithelium, Exp. Derm, 21:299-319
The effect of different compounds on lipid synthesis was evaluated, in a 3D model culture of Sebocytes. Drug candidates were drugs containing S—H or disulfide: Selenium disulfide (SeS2 dispersed in CarboxymethylCellulose—CMC) as a positive control, Selenocysteine, Captopril, Disulfiram and lipids containing S—H or disulfide: Thioethanol, 12-Mercaptododecanoic acid. Since Sebocytes differentiation is associated with increased lipid synthesis and accumulation, evaluation of proliferation and differentiation was done by quantifying lipid accumulation in the 3D Sebocytes culture (human cell line—SEBO662). Lipid accumulation was evaluated by lipid staining with Oil red staining.
Sebocytes SEBO662 were cultured into a three dimension (3D) epithelium and differentiated to a sebaceous-like phenotype. The Sebocytes were treated or not (control) with the test compounds and incubated for 14 days. All experiments were performed 3 times. After incubation, tissues were snap-frozen. Formaldehyde-fixed cryo sections were stained using an Oil-red-O solution and counterstained using haematoxylin. For each test condition, the sections were observed using a light microscope equipped with a camera. Five pictures were taken per replicate, making 15 values per treatment condition. The lipid content in each sample was quantified by calculation of the lipid droplet surface area. Quantitative comparison of all data points between lipid's droplet surface area of tested compounds versus control was performed

The values below come from US10688122B2, “Thiol and disulfide-containing agents for increasing meibomian gland lipid secretion” (Azura Ophthalmics Ltd., priority 2015, dated 2020).

Turning to `O=C(O)CCCCCCCCCCCS` [12-Mercaptododecanoic acid], the “effect on lipid synthesis in the 3D Sebocytes model (conclusion, in words)” value (shortened to “effect on lipid synthesis”) is on record as “significant stimulating effect”. In addition, the “lipid accumulation, % of the control” value (0.1 μM) came out at 385%. Where the note is “1 μM”, the “lipid accumulation, % of the control” value worked out at 349%.
Regarding `C[C@H](CS)C(=O)N1CCC[C@H]1C(=O)O` [Captopril], the “effect on lipid synthesis” value is recorded as “significant stimulating effect”. Also, the “lipid accumulation, % of the control” value (1 μM) was determined as 240%. The “lipid accumulation, % of the control” value (10 μM) is 173%.
Consider `CCN(CC)C(=S)SSC(=S)N(CC)CC` [Disulfiram], for which the “effect on lipid synthesis” value was “significant stimulating effect”. The “lipid accumulation, % of the control” value (100 μM) was found to be 199%. Further, the “stimulation of lipid accumulation (in words)” value (1000 μM) was “no stimulation effect”.
For `S=[Se]=S` [Selenium disulfide], the “effect on lipid synthesis” value is “significant stimulating effect”. Moreover, the “lipid accumulation, % of the control” value (0.01 μM) is given as 282%. Further, for the setting “0.1 μM”, the “lipid accumulation, % of the control” value was 348%.
Regarding `N[C@@H](C[SeH])C(=O)O` [Selenocysteine], the “effect on lipid synthesis” value is “significant stimulating effect”. Besides, the “lipid accumulation, % of the control” value (1 μM) is on record as 296%. Also, the “stimulation of lipid accumulation (in words)” value (10 μM) is on record as “no stimulation effect”.
For the molecule `OCCS` [Thioethanol], the “effect on lipid synthesis” value was “significant stimulating effect”. In addition, the “lipid accumulation, % of the control” value (0.1 μM) was 251%. Besides, under “1 μM”, the “lipid accumulation, % of the control” value worked out at 228%.
